The record followed here is patent US20230026271A1, “Piperazine Compounds for Inhibiting CPS1” (Eisai R&D Management Co., Ltd., priority 2019, published 2023).

The test concerns the target T1, CPS1 (Homo sapiens, UniProt P31327).
T1 construct: The full length, human CPS1 gene was cloned into pFastBac HTA; His6 (from the pFastBac HTA vector); made in house; host or cells: SF21 insect cells (baculovirus, Bac-to-bac)
T1 sequence (P31327 39-1500): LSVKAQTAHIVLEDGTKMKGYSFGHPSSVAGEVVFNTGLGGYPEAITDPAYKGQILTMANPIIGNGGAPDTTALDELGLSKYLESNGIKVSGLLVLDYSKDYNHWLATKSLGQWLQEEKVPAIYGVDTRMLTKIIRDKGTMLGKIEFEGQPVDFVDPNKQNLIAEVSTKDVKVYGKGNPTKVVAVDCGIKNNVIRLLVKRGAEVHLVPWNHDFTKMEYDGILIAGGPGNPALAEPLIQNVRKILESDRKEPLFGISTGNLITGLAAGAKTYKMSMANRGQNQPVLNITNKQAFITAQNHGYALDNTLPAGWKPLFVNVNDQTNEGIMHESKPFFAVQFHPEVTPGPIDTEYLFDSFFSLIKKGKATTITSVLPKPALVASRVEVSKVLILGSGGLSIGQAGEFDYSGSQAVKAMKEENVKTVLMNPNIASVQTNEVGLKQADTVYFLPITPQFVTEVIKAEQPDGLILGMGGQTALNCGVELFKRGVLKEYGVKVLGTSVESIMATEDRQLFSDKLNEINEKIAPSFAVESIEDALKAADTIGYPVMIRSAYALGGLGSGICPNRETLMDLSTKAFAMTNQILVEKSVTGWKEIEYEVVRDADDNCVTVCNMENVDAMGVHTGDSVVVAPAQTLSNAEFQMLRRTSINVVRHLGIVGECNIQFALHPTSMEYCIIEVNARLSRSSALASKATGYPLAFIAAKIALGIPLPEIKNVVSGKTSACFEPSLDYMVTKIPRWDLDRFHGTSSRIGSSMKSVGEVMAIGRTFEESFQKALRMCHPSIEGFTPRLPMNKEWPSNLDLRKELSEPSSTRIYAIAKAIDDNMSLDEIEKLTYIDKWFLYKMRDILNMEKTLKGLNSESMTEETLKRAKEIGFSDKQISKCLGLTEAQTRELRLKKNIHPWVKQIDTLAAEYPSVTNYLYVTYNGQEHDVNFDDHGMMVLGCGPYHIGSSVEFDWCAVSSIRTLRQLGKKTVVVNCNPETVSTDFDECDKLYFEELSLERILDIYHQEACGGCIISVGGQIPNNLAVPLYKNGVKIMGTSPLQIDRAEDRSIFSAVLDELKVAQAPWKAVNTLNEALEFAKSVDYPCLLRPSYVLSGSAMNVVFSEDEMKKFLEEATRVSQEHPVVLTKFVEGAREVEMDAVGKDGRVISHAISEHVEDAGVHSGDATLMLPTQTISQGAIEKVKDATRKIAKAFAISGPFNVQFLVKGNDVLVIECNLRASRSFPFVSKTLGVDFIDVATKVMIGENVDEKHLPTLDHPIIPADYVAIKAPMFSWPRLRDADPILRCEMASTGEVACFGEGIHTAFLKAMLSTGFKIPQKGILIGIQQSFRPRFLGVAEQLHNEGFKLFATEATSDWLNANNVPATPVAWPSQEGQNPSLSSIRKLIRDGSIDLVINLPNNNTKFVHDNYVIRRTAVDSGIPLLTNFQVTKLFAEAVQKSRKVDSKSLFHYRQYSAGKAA
In words: ADP-Glo endpoint assay measuring the ATPase activity of CPS1. The class given is biochemical. The conditions noted are these: geometric mean of a minimum of two values; 50 nM CPS1, 10 μM ATP, 0.2 mM NAG, 60 min at room temperature; read-out: ADPGlo IC50. As for the experimental part: CPS1 was expressed and purified from SF21 insect cells. The full length, human CPS1 gene was cloned into pFastBac HTA and baculovirus was generated using the Bac-to-bac expression system from Invitrogen. P3 virus was used to infect SF21 insect cells at a density of 1.5E6 cells/mL at an MOI of 2. Cells were harvested by centrifugation after 60 hrs and the cell pellet resuspended in lysis buffer (50 mM glycyl glycine pH 7.4, 20 mM KCl, 1 mM TCEP, 10% glycerol and 20 mM imidazole with Roche protease inhibitor tablet) before being lysed with 40 strokes of a Dounce homogenizer on ice. The insoluble fraction of the lysate was then cleared by centrifugation at 30,000 rpm for 30 min. 40 mL of supernatant was mixed with 2 mL of Ni NTA beads for 45 min at 4° C. in a 50 mL conical tube.
The beads were washed with 40 mL of wash buffer (50 mM glycyl glycine pH 7.4, 500 mM NaCl, 1 mM TCEP, 10% glycerol and 50 mM imidazole) by centrifugation and resuspension of the beads three times. Bound CPS1 protein was eluted in 6 mL of elution buffer (50 mM glycyl glycine pH 7.4, 500 mM NaCl, 1 mM TCEP, 10% glycerol and 250 mM imidazole) three times. Elution fractions were combined and concentrated using an Amicon Ultra centrifugation filter with a 10,000 molecular weight cut off. Imidazole was removed by repeated concentration and resuspension in storage buffer in the filter device (50 mM glycyl glycine pH 7.4, 500 mM NaCl, 1 mM TCEP and 20% glycerol). CPS1 was concentrated to a final concentration of ˜3 mg/mL before being aliquoted, flash frozen in liquid nitrogen and stored at −80° C.
CPS1 activity was measured and compounds profiled in an endpoint assay measuring the ATPase activity of CPS1 using the ADP-Glo kit from Promega. 50 nM CPS1 was incubated alone or with varying amounts of tested compound from DMSO stocks in assay buffer (50 mM HEPES pH 7.0, 12.5 mM KHCO3, 1.5 mM (NH4)2SO3, 5 mM MgCl2, 50 mM KCl, 1 mM TCEP, 0.01% TritonX 100, 0.0025% BSA and 0.2 mM NAG) for 20 min in a 3 μL volume in a 384-well plate (Corning Cat#3820). The final concentration of DMSO was 0.04%. The reaction was initiated by the addition of 10 μM ATP, bringing the final volume to 6 μL. After 60 min at room temperature, the reaction was terminated with 3 μL ADP-Glo reagent and incubated at room temperature for 30 min. 3 μL of kinase detection reagent was then added and luminescent signal measured on an Envision plate reader after 30 min.
On the technique in general: In ADP-Glo the light output rises with the ADP produced.
As for `COc1ccc(C(=O)N2C[C@@H](C)N(C(=O)c3ccc(-c4cnco4)cc3)[C@H](C)C2)c(F)c1` [Compound 39, ((3R,5R)-3,5-Dimethyl-4-(4-(oxazol-5-yl)benzoyl)piperazin-1-yl)(2-fluoro-4-methoxyphenyl)methanone], the IC50 – broadly, the concentration that gives 50% inhibition – is 3.58 µM.

Turning to `COc1ccc(C(=O)N2C[C@@H](C)N(C(=O)c3ccc(-c4ncc[nH]4)cc3)[C@H](C)C2)c(F)c1` [Compound 40, ((3R,5R)-4-(4-(1H-imidazol-2-yl)benzoyl)-3,5-dimethylpiperazin-1-yl)(2-fluoro-4-methoxyphenyl)methanone], the IC50 is 7.53 µM.

Turning to `COc1ccc(C(=O)N2C[C@@H](C)N(C(=O)c3ccc(-n4cnnn4)cc3)[C@H](C)C2)c(F)c1` [Compound 41, ((3R,5R)-4-(4-(1H-Tetrazol-1-yl)benzoyl)-3,5-dimethylpiperazin-1-yl)(2-fluoro-4-methoxyphenyl)methanone], the concentration for half-maximal inhibition (IC50) was found to be 10.4 µM.

For the molecule `COc1ccc(C(=O)N2C[C@@H](C)N(C(=O)c3ccc(CCO)cc3)[C@H](C)C2)c(F)c1` [Compound 42, ((2R,6R)-4-(2-Fluoro-4-methoxybenzoyl)-2,6-dimethylpiperazin-1-yl)(4-(2-hydroxyethyl)phenyl)methanone], the IC50 was 10.7 µM.

On to `COc1ccc(C(=O)N2C[C@@H](C)N(C(=O)c3ccc4cc(C)[nH]c4c3)[C@H](C)C2)c(F)c1` [Compound 43, ((3R,5R)-3,5-Dimethyl-4-(2-methyl-1H-indole-6-carbonyl)piperazin-1-yl)(2-fluoro-4-methoxyphenyl)methanone], for which the concentration for half-maximal inhibition (IC50) worked out at 11.4 µM.

In the case of `COc1ccc(C(=O)N2CCN(C(=O)c3ccc(OC)cc3F)CC2)c(F)c1` [Compound 44, Piperazine-1,4-diylbis((2-fluoro-4-methoxyphenyl)methanone)], the IC50 came to 7.78 µM.

As to `COc1ccc(C(=O)N2CCN(C(=O)c3ccc(OC)cc3F)C(C)C2)c(F)c1` (centres unmarked) [Compound 45, (2-Methylpiperazine-1,4-diyl)bis((2-fluoro-4-methoxyphenyl)methanone)], the IC50 was 5.21 µM.

On to `COc1ccc(C(=O)N2CCN(C(=O)c3ccc(OC)cc3F)[C@H](C)C2)c(F)c1` [Compound 46, (R)-(2-methylpiperazine-1,4-diyl)bis((2-fluoro-4-methoxyphenyl)methanone)], for which the IC50 is 6.04 µM.

Take `COc1ccc(C(=O)N2C[C@H](C)N(C(=O)c3ccc(OC)cc3F)C[C@H]2C)c(F)c1` [Compound 47, ((2S,5R)-2,5-dimethylpiperazine-1,4-diyl)bis((2-fluoro-4-methoxyphenyl)methanone)]: the IC50 came out at 0.714 µM.

As to `COc1ccc(C(=O)N2CCN(C(=O)c3ccc(OC)cc3F)C(C)(C)C2)c(F)c1` [Compound 48, (2,2-Dimethylpiperazine-1,4-diyl)bis((2-fluoro-4-methoxyphenyl)methanone)], the IC50 is 4.68 µM.

`COc1ccc(C(=O)N2C[C@H](C)N(C(=O)c3ccc(OC)cc3F)[C@@H](C)C2)c(F)c1` [Compound 49, ((2S,6S)-2,6-Dimethylpiperazine-1,4-diyl)bis((2-fluoro-4-methoxyphenyl)methanone)]: the IC50 stood at 6.56 µM.

As for `COc1ccc(C(=O)N2C[C@@H](C)N(C(=O)c3ccc(OC)cc3F)[C@@H](C)C2)c(F)c1` [Compound 50, ((2R,6S)-2,6-Dimethylpiperazine-1,4-diyl)bis((2-fluoro-4-methoxyphenyl)methanone)], the IC50 was determined as 6.98 µM.

In the case of `COc1ccc(C(=O)N2CCN(C(=O)c3ccc(OC)cc3F)[C@@H](C)C2)c(F)c1` [Compound 51, (S)-(2-Methylpiperazine-1,4-diyl)bis((2-fluoro-4-methoxyphenyl)methanone)], the IC50 turned out to be 2.78 µM.

As for `COc1ccc(OC)c2[nH]c(C(=O)N3[C@H](C)CN(C(=O)c4ccc5cc[nH]c5c4)C[C@H]3C)cc12` [Compound 52, ((2R,6R)-4-(1H-indole-6-carbonyl)-2,6-dimethylpiperazin-1-yl)(4,7-dimethoxy-1H-indol-2-yl)methanone], the IC50 came to 0.193 µM.
